Data reported in US20070049564A1 (Wyeth, priority 2005, published 2007).
In brackets after ≈: the same amount, converted by molar mass. Where two headings read alike, the source gives them in different places.

Key:
S. cholerasius GC 1355 = assay: MIC, broth microdilution
Salmonella spp. GC 235 = assay: MIC, broth microdilution; details: Salmonella
Description: (§1) Antimicrobial susceptibility testing. The in vitro activities of the antibiotics are determined by the broth microdilution method as recommended by the National Committee for Clinical Laboratory Standards (NCCLS) (1). Mueller-Hinton II broth (MHBII)(BBL Cockeysville, Md.) is the medium employed in the testing procedures. Microtiter plates containing serial dilutions of each antimicrobial agent are inoculated with each organism to yield the appropriate density (10^5 CFU/ml) in a 100 μl final volume. The plates are incubated for 18-22 hours at 35° C. in ambient air.
Representative compounds were first incubated in mouse serum for an hour prior to the in vitro testing against a panel of selected gram-positive and gram-negative bacteria strains. All compounds were also pre-incubated in water for an hour prior to testing as control.

Salmonella spp. GC 566 = assay: MIC, broth microdilution; details: Salmonella
Description: as §1
Presented in Tables I-XIII are representative compounds of Formula I which were evaluated against a panel of 40 selected gram-positive and gram-negative bacteria strains by pre-incubation in water, mouse serum or human serum. Representative compounds were first incubated in mouse serum for an hour prior to the in vitro testing against a panel of selected gram-positive and gram-negative bacteria strains. All compounds were also pre-incubated in water for an hour prior to testing as control. Representative compounds of Formula I were incubated in human serum prior to MIC determination.

E. coli #311 = assay: In vivo activity (oral, iv; ED50) against E. coli in mice; details: Escherichia coli
Description: . […] Smith and E. Coli #311 in mammals.
Results of the tests (MIC, oral and IV) are list in Table 7.

[1] = S. cholerasius GC 1355, Mouse Serum pre-incubation
[2] = S. cholerasius GC 1355, Water pre-incubation
[3] = SPP.GC235, Salmonella spp. GC 235, Mouse Serum pre-incubation
[4] = SPP.GC235, Salmonella spp. GC 235, Water pre-incubation
[5] = SPP.GC566, Salmonella spp. GC 566, Mouse Serum pre-incubation
[6] = SPP.GC566, Salmonella spp. GC 566, Water pre-incubation
[7] = single intravenous dose (SIV), read-out: ED50 E. coli #311 SIV
[8] = single oral dose (SOD), read-out: ED50 E. coli #311 SOD

Row | Compound | MIC (S. cholerasius GC 1355; [1]) | MIC (S. cholerasius GC 1355; [2]) | MIC (Salmonella spp. GC 235; [3]) | MIC (Salmonella spp. GC 235; [4]) | MIC (Salmonella spp. GC 566; [5]) | MIC (Salmonella spp. GC 566; [6]) | ED50 (E. coli #311; [7]) | ED50 (E. coli #311; [8]) | further results
1 | CCCN(CC(=O)Nc1cc(N(C)C)c2c(c1O)C(=O)C1=C(O)[C@]3(O)C(=O)C(C(N)=O)=C(O)C(N(C)C)C3CC1C2)C(=O)OCc1oc(=O)oc1-c1ccccc1 (stereo in doubt) [Example 110, (2-oxo-5-phenyl-1,3-dioxol-4-yl)methyl 2-{[(7R,10aS)-9-(aminocarbonyl)-4,7-bis(dimethylamino)-1,8,10a,11-tetrahydroxy-10,12-dioxo-5,5a,6,6a,7,10,10a,12-octahydrotetracen-2-yl]amino}-2-oxoethyl(propyl)carbamate] | – | – | – | – | – | – | – | – | MIC (S. cholerasius GC 1355; pre-incubation in mouse serum): > 64 µg/mL; MIC (S. cholerasius GC 1355; pre-incubation in water): > 64 µg/mL; MIC (Salmonella spp. GC 235; SPP.GC235, pre-incubation in mouse serum): 4 µg/mL (≈ 5.06 µM); MIC (Salmonella spp. GC 235; SPP.GC235, pre-incubation in water): 8 µg/mL (≈ 10.1 µM); MIC (Salmonella spp. GC 566; SPP.GC566, pre-incubation in mouse serum): 16 µg/mL (≈ 20.3 µM); MIC (Salmonella spp. GC 566; SPP.GC566, pre-incubation in water): 32 µg/mL (≈ 40.5 µM)
2 | CCCCN(CC(=O)Nc1cc(N(C)C)c2c(c1O)C(=O)C1=C(O)[C@]3(O)C(=O)C(C(N)=O)=C(O)[C@@H](N(C)C)C3CC1C2)C(=O)OCOC(=O)c1ccc(OC)cc1 (stereo partly drawn) [Example 2, ({[(2-{[(7S,10aS)-9-(aminocarbonyl)-4,7-bis(dimethylamino)-1,8,10a,11-tetrahydroxy-10,12-dioxo-5,5a,6,6a,7,10,10a,12-octahydrotetracen-2-yl]amino}-2-oxoethyl)(butyl)amino]carbonyl}oxy)methyl 4-methoxybenzoate] | > 64 µg/mL | > 64 µg/mL | 8 µg/mL (≈ 10.1 µM) | > 64 µg/mL | 8 µg/mL (≈ 10.1 µM) | > 64 µg/mL | – | – | –
3 | CCCCN(CC(=O)Nc1cc(N(C)C)c2c(c1O)C(=O)C1=C(O)[C@]3(O)C(=O)C(C(N)=O)=C(O)[C@@H](N(C)C)C3CC1C2)C(=O)OCOC(=O)c1ccc(C)cc1 (stereo partly drawn) [Example 3, ({[(2-{[(7S,10aS)-9-(aminocarbonyl)-4,7-bis(dimethylamino)-1,8,10a,11-tetrahydroxy-10,12-dioxo-5,5a,6,6a,7,10,10a,12-octahydrotetracen-2-yl]amino}-2-oxoethyl)(butyl)amino]carbonyl}oxy)methyl 4-methylbenzoate] | 16 µg/mL (≈ 20.6 µM) | > 64 µg/mL | 2 µg/mL (≈ 2.57 µM) | > 64 µg/mL | 4 µg/mL (≈ 5.14 µM) | > 64 µg/mL | – | – | –
4 | CCCN(CC(=O)Nc1cc(N(C)C)c2c(c1O)C(=O)C1=C(O)[C@]3(O)C(=O)C(C(N)=O)=C(O)[C@@H](N(C)C)[C@@H]3C[C@@H]1C2)C(=O)OCOC(=O)c1ccc(OC)cc1 [Example 6, ({[(2-{[(5aR,6aS,7S,10aS)-9-(aminocarbonyl)-4,7-bis(dimethylamino)-1,8,10a,11-tetrahydroxy-10,12-dioxo-5,5a,6,6a,7,10,10a,12-octahydrotetracen-2-yl]amino}-2-oxoethyl)(propyl)amino]carbonyl}oxy)methyl 4-methoxybenzoate] | 16 µg/mL (≈ 20.5 µM) | > 64 µg/mL | 2 µg/mL (≈ 2.56 µM) | 16 µg/mL (≈ 20.5 µM) | 4 µg/mL (≈ 5.13 µM) | 64 µg/mL (≈ 82.1 µM) | – | – | –
5 | CCCN(CC(=O)Nc1cc(N(C)C)c2c(c1O)C(=O)C1=C(O)[C@]3(O)C(=O)C(C(N)=O)=C(O)[C@@H](N(C)C)[C@@H]3C[C@@H]1C2)C(=O)OCOC(=O)C1CCC1 [Example 7, ({[(2-{[(5aR,6aS,7S,10aS)-9-(aminocarbonyl)-4,7-bis(dimethylamino)-1,8,10a,11-tetrahydroxy-10,12-dioxo-5,5a,6,6a,7,10,10a,12-octahydrotetracen-2-yl]amino}-2-oxoethyl)(propyl)amino]carbonyl}oxy)methyl cyclobutanecarboxylate] | 16 µg/mL (≈ 22 µM) | > 64 µg/mL | 2 µg/mL (≈ 2.75 µM) | 8 µg/mL (≈ 11 µM) | 1 µg/mL (≈ 1.37 µM) | 16 µg/mL (≈ 22 µM) | – | – | –
6 | CCCN(CC(=O)Nc1cc(N(C)C)c2c(c1O)C(=O)C1=C(O)[C@]3(O)C(=O)C(C(N)=O)=C(O)[C@@H](N(C)C)[C@@H]3C[C@@H]1C2)C(=O)OCOC(=O)c1ccc(F)cc1 [Example 8, ({[(2-{[(5aR,6aS,7S,10aS)-9-(aminocarbonyl)-4,7-bis(dimethylamino)-1,8,10a,11-tetrahydroxy-10,12-dioxo-5,5a,6,6a,7,10,10a,12-octahydrotetracen-2-yl]amino}-2-oxoethyl)(propyl)amino]carbonyl}oxy)methyl 4-fluorobenzoate] | 32 µg/mL (≈ 41.7 µM) | > 64 µg/mL | 4 µg/mL (≈ 5.21 µM) | 64 µg/mL (≈ 83.4 µM) | 4 µg/mL (≈ 5.21 µM) | > 64 µg/mL | – | – | –
7 | CCCN(CC(=O)Nc1cc(N(C)C)c2c(c1O)C(=O)C1=C(O)[C@]3(O)C(=O)C(C(N)=O)=C(O)[C@@H](N(C)C)[C@@H]3C[C@@H]1C2)C(=O)OCOC(=O)C(C)(C)C [Example 9, ({[(2-{[(5aR,6aS,7S,10aS)-9-(aminocarbonyl)-4,7-bis(dimethylamino)-1,8,10a,11-tetrahydroxy-10,12-dioxo-5,5a,6,6a,7,10,10a,12-octahydrotetracen-2-yl]amino}-2-oxoethyl)(propyl)amino]carbonyl}oxy)methyl pivalate] | 64 µg/mL (≈ 87.7 µM) | > 64 µg/mL | 1 µg/mL (≈ 1.37 µM) | 8 µg/mL (≈ 11 µM) | 2 µg/mL (≈ 2.74 µM) | 64 µg/mL (≈ 87.7 µM) | – | – | –
8 | CCCN(CC(=O)Nc1cc(N(C)C)c2c(c1O)C(=O)C1=C(O)[C@]3(O)C(=O)C(C(N)=O)=C(O)[C@@H](N(C)C)[C@@H]3C[C@@H]1C2)C(=O)OCOC(=O)C(C)C [Example 10, ({[(2-{[(5aR,6aS,7S,10aS)-9-(aminocarbonyl)-4,7-bis(dimethylamino)-1,8,10a,11-tetrahydroxy-10,12-dioxo-5,5a,6,6a,7,10,10a,12-octahydrotetracen-2-yl]amino}-2-oxoethyl)(propyl)amino]carbonyl}oxy)methyl 2-methylpropanoate] | 16 µg/mL (≈ 22.4 µM) | > 64 µg/mL | 0.5 µg/mL (≈ 0.699 µM) | 32 µg/mL (≈ 44.7 µM) | 2 µg/mL (≈ 2.79 µM) | > 64 µg/mL | – | – | –
9 | CCCN(CC(=O)Nc1cc(N(C)C)c2c(c1O)C(=O)C1=C(O)[C@]3(O)C(=O)C(C(N)=O)=C(O)[C@@H](N(C)C)[C@@H]3C[C@@H]1C2)C(=O)OCOC(=O)Cc1ccccc1 [Example 11, ({[(2-{[(5aR,6aS,7S,10aS)-9-(aminocarbonyl)-4,7-bis(dimethylamino)-1,8,10a,11′-tetrahydroxy-10,12-dioxo-5,5a,6,6a,7,10,10a,12-octahydrotetracen-2-yl]amino}-2-oxoethyl)(propyl)amino]carbonyl}oxy)methyl phenylacetate] | 32 µg/mL (≈ 41.9 µM) | > 64 µg/mL | 0.5 µg/mL (≈ 0.655 µM) | 64 µg/mL (≈ 83.8 µM) | 2 µg/mL (≈ 2.62 µM) | > 64 µg/mL | – | – | –
10 | CN(C)c1cc(NC(=O)CN(C(=O)OCOC(=O)c2ccc(C(C)(C)C)cc2)C(C)(C)C)c(O)c2c1C[C@H]1C[C@H]3[C@H](N(C)C)C(O)=C(C(N)=O)C(=O)[C@@]3(O)C(O)=C1C2=O [Example 43, ({[(2-{[(5aR,6aS,7S,10aS)-9-(aminocarbonyl)-4,7-bis(dimethylamino)-1,8,10a,11-tetrahydroxy-10,12-dioxo-5,5a,6,6a,7,10,10a,12-octahydrotetracen-2-yl]amino}-2-oxoethyl)(tert-butyl)amino]carbonyl}oxy)methyl 4-tert-butylbenzoate] | – | – | – | – | – | – | 3.6 mg/kg | 60.4 mg/kg | –
11 | CN(C)c1cc(NC(=O)CN(C(=O)OCOC(=O)C2CCCC2)C(C)(C)C)c(O)c2c1C[C@H]1C[C@H]3[C@H](N(C)C)C(O)=C(C(N)=O)C(=O)[C@@]3(O)C(O)=C1C2=O [Example 46, ({[(2-{[(5aR,6aS,7S,10aS)-9-(aminocarbonyl)-4,7-bis(dimethylamino)-1,8,10a,11-tetrahydroxy-10,12-dioxo-5,5a,6,6a,7,10,10a,12-octahydrotetracen-2-yl]amino}-2-oxoethyl)(tert-butyl)amino]carbonyl}oxy)methyl cyclopentanecarboxylate] | – | – | – | – | – | – | 2.16 mg/kg | 29.2 mg/kg | –
12 | CCCCOC(=O)N(CC(=O)Nc1cc(N(C)C)c2c(c1O)C(=O)C1=C(O)[C@]3(O)C(=O)C(C(N)=O)=C(O)[C@@H](N(C)C)[C@@H]3C[C@@H]1C2)C(C)(C)C [Example 58, butyl 2-{[(5aR,6aS,7S,10aS)-9-(aminocarbonyl)-4,7-bis(dimethylamino)-1,8,10a,11-tetrahydroxy-10,12-dioxo-5,5a,6,6a,7,10,10a,12-octahydrotetracen-2-yl]amino}-2-oxoethyl(tert-butyl)carbamate] | – | – | – | – | – | – | > 8 mg/kg | > 32 mg/kg | –
13 | CC(C)COC(=O)N(CC(=O)Nc1cc(N(C)C)c2c(c1O)C(=O)C1=C(O)[C@]3(O)C(=O)C(C(N)=O)=C(O)[C@@H](N(C)C)[C@@H]3C[C@@H]1C2)C(C)(C)C [Example 59, isobutyl 2-{[(5aR,6aS,7S,10aS)-9-(aminocarbonyl)-4,7-bis(dimethylamino)-1,8,10a,11-tetrahydroxy-10,12-dioxo-5,5a,6,6a,7,10,10a,12-octahydrotetracen-2-yl]amino}-2-oxoethyl(tert-butyl)carbamate] | – | – | – | – | – | – | > 8 mg/kg | > 32 mg/kg | –
14 | COC(=O)N(CC(=O)Nc1cc(N(C)C)c2c(c1O)C(=O)C1=C(O)[C@]3(O)C(=O)C(C(N)=O)=C(O)[C@@H](N(C)C)[C@@H]3C[C@@H]1C2)C(C)(C)C [Example 60, methyl 2-{[(5aR,6aS,7S,10aS)-9-(aminocarbonyl)-4,7-bis(dimethylamino)-1,8,10a,11-tetrahydroxy-10,12-dioxo-5,5a,6,6a,7,10,10a,12-octahydrotetracen-2-yl]amino}-2-oxoethyl(tert-butyl)carbamate] | – | – | – | – | – | – | > 8 mg/kg | > 32 mg/kg | –
